Assay results taken from publication PMC11996864, “A small-molecule inhibitor of BCL10-MALT1 interaction abrogates progression of diffuse large B cell lymphoma” (The Journal of Clinical Investigation, 2025).
Where “and” joins values, the source holds several entries; their conditions need not be identical. Equal values may be shown once.

Columns and labels:
[1] = tested on: WT C57BL/6 mice; test: Flow cytometry of spleen immune cell subsets after 12 days of treatment; format: in vivo, mouse; settings: 50 mg/kg, vs vehicle, result in words
Procedure: Long-term in vivo toxicity experiments. WT C57/BL6 (The Jackson Laboratory) male and female mice were treated daily with 50 mg/kg M1i-124 or vehicle control for 28 days. At the time of sacrifice, blood was obtained for complete blood count, alanine transaminase, albumin, and total bilirubin (Abaxis). Livers from control and M1i-124 treated mice were collected for H&E analysis.
Flow cytometry. Splenocytes were isolated from WT mice after 12 days of treatment with 50 mg/kg M1i-124 or vehicle control. After obtaining a single cell suspension using […] filter, cells were stained with viability dye (Tonbo Biosciences Ghost Red 780, Fisher Healthcare, Cat #50-105-2988). After blocking with mouse BD Fc BlockTM (BD Biosciences, Cat# 553141), splenocytes were stained with a panel of antibodies including antibodies from Invitrogen (anti-CD3 APC, Cat# […]
0251-82 and anti-NK1.1 PE-Cyanine 7 Cat#25-5941-82), an antibody from BD Bioscience (anti- […]
and anti-CD4 BV711 Cat# 100557). Samples were run on a 5 laser LSR Fortessa flow cytometer and analyzed with FlowJo software.

[2] = tested on: BCL10 and MALT1 mRNA in TMD8 cells; test: BCL10 and MALT1 mRNA expression, qRT-PCR; format: cell-based, human
Procedure: Transfection. HEK293T or HepG2 BCL10-/- cells (used only in Supplemental Figure 1 where indicated) were transiently transfected at approximately 80% confluence using Lipofectamine 3000 (ThermoFisher, Cat# L3000015) per manufacture instructions. Cells were lysed in buffer (150 mM NaCl, 2 mM EDTA, 10% glycerol, 1% Nonidet P-40, 20 mM Tris Hcl, pH 7.4) containing protease and phosphatase inhibitors (Thermo Scientific, Cat#78446) at 24 hours for HEK293T cells or 48 hours for HepG2 BCL10-/- cells.
Immunoprecipitation. Cells were rinsed in PBS and lysed in buffer (150 mM NaCl, 2 mM EDTA, 10% glycerol, 1% Nonidet P-40, 20 mM Tris HCl, pH 7.4) containing protease and phosphatase inhibitors (Thermo Scientific, Cat#78446). Supernatants were incubated with anti-Myc tag agarose beads (Takara, Cat# 631208) or anti-HA tag matrix (Roche, Cat# 11815016001) overnight at 4°C with gentle rotation. Beads were then pelleted at 1000 rpm for 2 min and washed 3-4 times with buffer. Antibody-protein conjugates were removed from beads by boiling for ~5-8 minutes in 2x Laemmli sample buffer (Bio-Rad Laboratories, Cat# 161073) containing 2-mercaptoethanol, and samples were then subjected to SDS-PAGE and immunoblotting.
Antibodies for western blots. The HRP-conjugated anti-HA (clone 3F10, Cat# 12013819001) and anti-HA (clone 3F10, Cat# 11867423001) antibodies were purchased from Sigma. The anti-phospho-IKKα(Ser176)/ IKKβ(Ser177) (clone C84E11, Cat# 2078), rabbit anti-GAPDH (clone […]
were purchased from Cell Signaling Technology. The mouse anti-GAPDH (clone 6C5, Cat# sc- […]
anti-IKKα/β (clone H-470, Cat# sc-7607) antibodies were purchased from Santa Cruz. The anti-N4BP1 antibody (Cat# CPA2415) was purchased from Cohesion Biosciences. The anti-mouse (Cat# W4021) and anti-rabbit (Cat# W4011) HRP-conjugated secondaries were purchased from Promega. The anti-Rat HRP-conjugated secondary was purchased from Cell Signaling […]
qRT-PCR. Jurkat T cells grown in serum free media for 4 hours with indicated inhibitors prior to stimulation with PMA/Ionomycin for 4 hours. […]

SMILES: O=S(=O)(NCc1ccc2c(c1)OCO2)c1ccc(Cc2ccc(S(=O)(=O)NCc3ccc4c(c3)OCO4)cc2)cc1 [M1i-124]
- percentage of total lymphocytes and specific lymphocyte populations within the spleen [1]: no difference
- BCL10 mRNA (normalized) ([2]; TMD8, 1 μM, 24 hrs): 1.022 and 1.024 and 1.305
- MALT1 mRNA (normalized) ([2]; TMD8, 1 μM, 24 hrs): 0.842 and 0.979 and 1.096
- BCL10 and MALT1 mRNA levels ([2]; TMD8, result in words): modest time-dependent upregulation
